Results reported in the supplement of paper PMC10307832.

The cell lines below were run with CC(C)(C)c1cc(NC(=O)Nc2ccc(-c3cn4c(n3)sc3cc(OCCN5CCOCC5)ccc34)cc2)no1 [Quizartinib] + CS(=O)(=O)N1CCN(Cc2cc3nc(-c4cccc5[nH]ncc45)nc(N4CCOCC4)c3s2)CC1 [Pictilisib] (partner 1 µM) (assay: relative viability (nuclei count vs DMSO), 5 days (fraction); higher = more cells survive). Conditions: first compound 0.001 µM.
Procedure, shortened: (§1)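 Lung cancer cell lines, seeded in 1536-well plates, were treated the following day by pin tool with a single drug or with five library-drug doses (not always all listed) in √10 steps on top of a fixed anchor-drug dose. Cells were fixed and nuclei stained in one step after 5 days, and nuclei were counted. Relative viability is the nuclei count for treated wells divided by that for vehicle wells, reported as medians of duplicate plates.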
NCI-H1793 gave a relative viability of 0.304.
NCI-H727 showed a relative viability of 0.277.
SW 1573 showed a relative viability of 0.474.
201T gave a relative viability of 0.668.
With HCC-44 the relative viability was 0.669.
NCI-H1755 gave a relative viability of 0.39.
NCI-H1650 was tested, and the relative viability was 0.268.
With COR-L23 the relative viability was 0.535.
With NCI-H2085 the relative viability was 0.5.
NCI-H460 was tested, and the relative viability was 0.439.
Cell Line BEN has a relative viability of 0.499.
Work on PC-3 [JPC-3] yielded a relative viability of 0.656.
LC-2-ad was tested, and the relative viability was 0.398.

Same assay, conditions: first compound 0.003162 µM
With NCI-H1793 the relative viability was 0.398.
SW 1573 was tested, and the relative viability was 0.432.
201T gave a relative viability of 0.678.
HCC-44 was tested, and the relative viability was 0.516.
Work on NCI-H1755 yielded a relative viability of 0.439.
NCI-H1650 showed a relative viability of 0.584.
In the case of COR-L23, the relative viability is reported as 0.758.
With NCI-H2085 the relative viability was 0.504.
NCI-H460 was tested, and the relative viability was 0.436.
For BEN, the relative viability was 0.613.
With PC-3 [JPC-3] the relative viability was 0.794.
LC-2-ad showed a relative viability of 0.516.

Same assay, conditions: first compound 0.01 µM
Cell Line NCI-H1793 has a relative viability of 0.249.
NCI-H727 showed a relative viability of 0.365.
SW 1573 gave a relative viability of 0.516.
201T gave a relative viability of 0.669.
HCC-44 gave a relative viability of 0.56.
In the case of NCI-H1755, the relative viability is reported as 0.416.
NCI-H1650 showed a relative viability of 0.566.
COR-L23 gave a relative viability of 0.698.
With NCI-H2085 the relative viability was 0.479.
Work on NCI-H460 yielded a relative viability of 0.382.
BEN showed a relative viability of 0.55.
PC-3 [JPC-3] gave a relative viability of 0.834.
LC-2-ad showed a relative viability of 0.351.

Same assay, conditions: first compound 0.03162 µM
For NCI-H1793, the relative viability was 0.362.
In the case of NCI-H727, the relative viability is reported as 0.351.
Work on SW 1573 yielded a relative viability of 0.325.
With 201T the relative viability was 0.68.
For HCC-44, the relative viability was 0.626.
In the case of NCI-H1755, the relative viability is reported as 0.401.
COR-L23 was tested, and the relative viability was 0.589.
Cell Line NCI-H2085 has a relative viability of 0.595.
With NCI-H460 the relative viability was 0.352.
For BEN, the relative viability was 0.496.
With PC-3 [JPC-3] the relative viability was 0.733.
With LC-2-ad the relative viability was 0.323.

Same assay, conditions: first compound 0.1 µM
Cell Line NCI-H1793 has a relative viability of 0.334.
With NCI-H727 the relative viability was 0.485.
Work on SW 1573 yielded a relative viability of 0.475.
201T gave a relative viability of 0.695.
In the case of HCC-44, the relative viability is reported as 0.555.
NCI-H1755 showed a relative viability of 0.436.
NCI-H1650 was tested, and the relative viability was 0.547.
For COR-L23, the relative viability was 0.763.
Cell Line NCI-H2085 has a relative viability of 0.523.
In the case of NCI-H460, the relative viability is reported as 0.384.
Work on BEN yielded a relative viability of 0.543.
For PC-3 [JPC-3], the relative viability was 0.73.
For LC-2-ad, the relative viability was 0.276.

These cell lines were tested with COCC[n+]1c2c(n(Cc3cnccn3)c1C)C(=O)c1ccccc1C2=O [YM155] + CS(=O)(=O)CCNCc1ccc(-c2ccc3ncnc(Nc4ccc(OCc5cccc(F)c5)c(Cl)c4)c3c2)o1 [Lapatinib] (partner 2 µM) in the same assay as above. Conditions: first compound 0.002 µM.
Procedure, shortened: as §1
Work on NCI-H727 yielded a relative viability of 0.614.
For SW 1573, the relative viability was 1.1.
Work on 201T yielded a relative viability of 1.02.
HCC-44 was tested, and the relative viability was 0.994.
With NCI-H1755 the relative viability was 1.04.
NCI-H1650 was tested, and the relative viability was 0.674.
In the case of COR-L23, the relative viability is reported as 0.837.
Cell Line NCI-H2085 has a relative viability of 0.746.
In the case of NCI-H460, the relative viability is reported as 0.906.
For BEN, the relative viability was 0.59.
For PC-3 [JPC-3], the relative viability was 0.455.
LC-2-ad was tested, and the relative viability was 0.997.

Same assay, conditions: first compound 0.006325 µM
NCI-H1793 gave a relative viability of 0.584.
Cell Line NCI-H727 has a relative viability of 0.704.
In the case of SW 1573, the relative viability is reported as 1.01.
201T showed a relative viability of 0.992.
HCC-44 was tested, and the relative viability was 0.998.
Cell Line NCI-H1755 has a relative viability of 1.03.
For NCI-H1650, the relative viability was 0.787.
COR-L23 showed a relative viability of 0.917.
Cell Line NCI-H2085 has a relative viability of 0.752.
NCI-H460 was tested, and the relative viability was 1.1.
BEN showed a relative viability of 0.746.
Cell Line PC-3 [JPC-3] has a relative viability of 0.455.
Work on LC-2-ad yielded a relative viability of 0.92.

Same assay, conditions: first compound 0.02 µM
Cell Line NCI-H1793 has a relative viability of 0.606.
NCI-H727 was tested, and the relative viability was 1.01.
SW 1573 gave a relative viability of 1.21.
Cell Line 201T has a relative viability of 0.956.
In the case of HCC-44, the relative viability is reported as 1.02.
For NCI-H1755, the relative viability was 1.01.
NCI-H1650 gave a relative viability of 0.988.
For COR-L23, the relative viability was 0.503.
NCI-H2085 gave a relative viability of 0.614.
NCI-H460 gave a relative viability of 1.05.
BEN showed a relative viability of 0.782.
For PC-3 [JPC-3], the relative viability was 0.437.
LC-2-ad showed a relative viability of 0.946.

Same assay, conditions: first compound 0.06325 µM
Cell Line NCI-H1793 has a relative viability of 0.479.
With NCI-H727 the relative viability was 0.953.
For SW 1573, the relative viability was 0.858.
With 201T the relative viability was 0.96.
Cell Line HCC-44 has a relative viability of 1.08.
Work on NCI-H1755 yielded a relative viability of 1.04.
Cell Line NCI-H1650 has a relative viability of 0.488.
COR-L23 gave a relative viability of 0.15.
NCI-H2085 gave a relative viability of 0.315.
For NCI-H460, the relative viability was 0.452.
Cell Line BEN has a relative viability of 0.86.
With PC-3 [JPC-3] the relative viability was 0.455.
For LC-2-ad, the relative viability was 0.907.

What follows are cell lines tested with CC(C)(C)c1cc(NC(=O)Nc2ccc(-c3cn4c(n3)sc3cc(OCCN5CCOCC5)ccc34)cc2)no1 [Quizartinib] (assay: relative viability (nuclei count vs DMSO), 5 days (fraction); higher = more cells survive). Conditions: 0.001 µM.
Procedure, shortened: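 Lung cancer cell lines in 1536-well plates were exposed by pinning to five library-drug doses (not always all listed) √10 apart, following an overnight hold at 37 °C. MetaXpress counted Hoechst-stained nuclei from 4× images taken after 5 days without medium change. Viability is the median ratio of treated-well to vehicle-well nuclei across plates. Plates required control CV below 25% and at least one doubling.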
Work on NCI-H1793 yielded a relative viability of 0.838.
